This passage reports EC50 results from US9682976B2, “Protein kinase C inhibitors and uses thereof” (Rigel Pharmaceuticals, Inc., priority 2012, dated 2017).

The test system of the test is PKC mediated IL-2 production. The test can be described thus: IL-2 ELISA, human primary T cell, anti CD3+CD28+. The format is cell-based. The following applies: human primary T cells stimulated with αCD3 and αCD28, 24 hours. In short, it runs like this: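 Human peripheral blood T cells, pre-expanded with αCD3/αCD28 and IL-2 and then washed free of IL-2, were pre-incubated with compound for 1 h at 37° C. They were then stimulated on plates coated with […] αCD3 and 5 μg/ml αCD28, or with 0.5 ng/ml PMA plus 0.1 uM ionomycin in the counter assay. IL-2 in supernatants was measured by ELISA after 24 h.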
(In an ELISA, binding on a coated surface is turned into a signal by an enzyme label.)

Some results are limits rather than exact numbers.

Compound `CC1(C)C[C@H](Nc2nc(Nc3ccc(N4CCN(C5COC5)CC4)c(C#N)c3)ncc2F)C[C@@H]2CCCN21` [Compound 116] showed an EC50 (Homo sapiens, T-cell, 24 h) of 100 to 500 nM. With `Cn1nnn(-c2cc(Nc3ncc(F)c(N[C@@H]4C[C@@H]5CCCN5C(C)(C)C4)n3)ccc2N2CCN(C3COC3)CC2)c1=O` [Compound 117, 1-(5-((4-(((7R,8aS)-5,5-dimethyloctahydroindolizin-7-yl)amino)-5-fluoropyrimidin-2-yl)amino)-2-(4-(oxetan-3-yl)piperazin-1-yl)phenyl)-4-methyl-1,4-dihydro-5H-tetrazol-5-one], the EC50 (Homo sapiens, T-cell, 24 h) fell in the range of 1000 to 10000 nM. Take `CC1(C)C[C@H](Nc2nc(Nc3ccc(OC4CCNCC4)c(C(F)(F)F)c3)ncc2F)C[C@@H]2CCCN21` [Compound 118, N^4-((7R,8aS)-5,5-dimethyloctahydroindolizin-7-yl)-5-fluoro-N^2-(4-(piperidin-4-yloxy)-3-(trifluoromethyl)phenyl)pyrimidine-2,4-diamine]: the concentration for a half-maximal effect (EC50) (Homo sapiens, T-cell, 24 h) is 100 to 500 nM. As for `CC1(C)C[C@H](Nc2nc(Nc3ccc(O[C@@H]4CCNC[C@H]4F)c(C(F)(F)F)c3)ncc2F)C[C@@H]2CCCN21` [Compound 119], where the note is “Homo sapiens, T-cell, 24 h”, the EC50 was below 100 nM.

For `CC1(C)C[C@H](Nc2nc(Nc3ccc(OC4CCN(C5COC5)CC4)c(C(F)(F)F)c3)ncc2F)C[C@@H]2CCCN21` [Compound 120], the half-maximal effective concentration (EC50) (Homo sapiens, T-cell, 24 h) was 100 to 500 nM. Turning to `CC1(C)C[C@H](Nc2nc(Nc3ccc(O[C@H]4CCNC[C@@H]4F)c(C(F)(F)F)c3)ncc2F)C[C@@H]2CCCN21` [Compound 121], where the note is “Homo sapiens, T-cell, 24 h”, the concentration for a half-maximal effect (EC50) was below 100 nM. On the same count and under the same terms, to `CC1(C)C[C@H](Nc2nc(Nc3ccc(O[C@@H]4CCN(C5COC5)C[C@H]4F)c(C(F)(F)F)c3)ncc2F)C[C@@H]2CCCN21` [Compound 122] belongs 100 to 500 nM; to `CC1(C)C[C@H](Nc2nc(Nc3ccc(O[C@H]4CCNC[C@@H]4F)c(Cl)c3)ncc2F)C[C@@H]2CCCN21` [Compound 123], below 100 nM; to `CC1(C)C[C@H](Nc2nc(Nc3ccc(OC4CCNCC4O)c(Cl)c3)ncc2F)C[C@@H]2CCCN21` (stereo partly drawn) [Compound 124], 100 to 500 nM. `CC1(C)C[C@H](Nc2nc(Nc3ccc4c(c3)-n3nnnc3C(CO)(CO)O4)ncc2F)C[C@@H]2CCCN21` [Compound 125, (8-((4-(((7R,8aS)-5,5-dimethyloctahydroindolizin-7-yl)amino)-5-fluoropyrimidin-2-yl)amino)-4H-benzo[b]tetrazolo[1,5-d][1,4]oxazine-4,4-diyl)dimethanol]: the EC50 (Homo sapiens, T-cell, 24 h) was in the range of 1000 to 10000 nM. `CC1(C)C[C@H](Nc2nc(Nc3ccc4c(c3)-n3nnnc3C3(COC3)O4)ncc2F)C[C@@H]2CCCN21` [Compound 126, N^4-((7R,8aS)-5,5-dimethyloctahydroindolizin-7-yl)-5-fluoro-N^2-(spiro[benzo[b]tetrazolo[1,5-d][1,4]oxazine-4,3′-oxetan]-8-yl)pyrimidine-2,4-diamine] yielded an EC50 (Homo sapiens, T-cell, 24 h) below 100 nM. The compound `CC1(O)COc2ccc(Nc3ncc(F)c(N[C@@H]4C[C@@H]5CCCN5C(C)(C)C4)n3)cc2-n2nnnc21` (stereo partly drawn) [Compound 127] returned a 50% effective concentration (EC50) below 100 nM. Compound `CC1(C)C[C@H](Nc2nc(Nc3ccc(OC4CCNCC4)c(OC(F)F)c3)ncc2F)C[C@@H]2CCCN21` [Compound 128, N^2-(3-(difluoromethoxy)-4-(piperidin-4-yloxy)phenyl)-N^4-((7R,8aS)-5,5-dimethyloctahydroindolizin-7-yl)-5-fluoropyrimidine-2,4-diamine] had an EC50 (Homo sapiens, T-cell, 24 h) of 100 to 500 nM.

The compound `CC1(C)C[C@H](Nc2nc(Nc3ccc(OCCO)c(-n4nnnc4C4CC4)c3)ncc2F)C[C@@H]2CCCN21` [Compound 129, 2-(2-(5-cyclopropyl-1H-tetrazol-1-yl)-4-((4-(((7R,8aS)-5,5-dimethyloctahydroindolizin-7-yl)amino)-5-fluoropyrimidin-2-yl)amino)phenoxy)ethan-1-ol] showed an EC50 (Homo sapiens, T-cell, 24 h) below 100 nM. As for `CC1(C)C[C@H](Nc2nc(Nc3ccc(OCCO)c(F)c3)ncc2F)C[C@@H]2CCCN21` [Compound 130, 2-(4-((4-(((7R,8aS)-5,5-dimethyloctahydroindolizin-7-yl)amino)-5-fluoropyrimidin-2-yl)amino)-2-fluorophenoxy)ethan-1-ol], the EC50 (Homo sapiens, T-cell, 24 h) was in the range of 500 to 1000 nM. `CC1(C)C[C@H](Nc2nc(Nc3ccc(OCCO)c(C(F)(F)F)c3)ncc2F)C[C@@H]2CCCN21` [Compound 131, 2-(4-((4-(((7R,8aS)-5,5-dimethyloctahydroindolizin-7-yl)amino)-5-fluoropyrimidin-2-yl)amino)-2-(trifluoromethyl)phenoxy)ethan-1-ol] showed an EC50 (Homo sapiens, T-cell, 24 h) below 100 nM. Take `Cn1nnn(-c2cc(Nc3ncc(F)c(N[C@@H]4C[C@@H]5CCCN5C(C)(C)C4)n3)ccc2OCCO)c1=O` [Compound 132, 1-(5-((4-(((7R,8aS)-5,5-dimethyloctahydroindolizin-7-yl)amino)-5-fluoropyrimidin-2-yl)amino)-2-(2-hydroxyethoxy)phenyl)-4-methyl-1,4-dihydro-5H-tetrazol-5-one]: the EC50 (Homo sapiens, T-cell, 24 h) was below 100 nM. For the compound `CC1(C)C[C@H](Nc2nc(Nc3ccc(OCCO)c(Cl)c3)ncc2F)C[C@@H]2CCCN21` [Compound 133, 2-(2-chloro-4-((4-(((7R,8aS)-5,5-dimethyloctahydroindolizin-7-yl)amino)-5-fluoropyrimidin-2-yl)amino)phenoxy)ethan-1-ol], the concentration for a half-maximal effect (EC50) (Homo sapiens, T-cell, 24 h) was in the range of 100 to 500 nM.

`Cc1cc(Nc2ncc(F)c(N[C@@H]3C[C@@H]4CCCN4C(C)(C)C3)n2)ccc1OCCO` [Compound 134, 2-(4-((4-(((7R,8aS)-5,5-dimethyloctahydroindolizin-7-yl)amino)-5-fluoropyrimidin-2-yl)amino)-2-(methyl)phenoxy)ethan-1-ol] yielded a half-maximal effective concentration (EC50) (Homo sapiens, T-cell, 24 h) of 100 to 500 nM. In turn, `C[C@@H](CO)Oc1ccc(Nc2ncc(F)c(N[C@@H]3C[C@@H]4CCCN4C(C)(C)C3)n2)cc1-n1nnn(C)c1=O` [Compound 135, 1-(5-((4-(((7R,8aS)-5,5-dimethyloctahydroindolizin-7-yl)amino)-5-fluoropyrimidin-2-yl)amino)-2-(((S)-1-hydroxypropan-2-yl)oxy)phenyl)-4-methyl-1,4-dihydro-5H-tetrazol-5-one] had a concentration giving a half-maximal response (EC50) (Homo sapiens, T-cell, 24 h) below 100 nM. Compound `CC1(C)Oc2ccc(Nc3ncc(F)c(N[C@@H]4C[C@@H]5CCCN5C(C)(C)C4)n3)cc2-n2nnnc21` [Compound 136, N2-(4,4-dimethyl-4H-benzo[b]tetrazolo[1,5-d][1,4]oxazin-8-yl)-N4-((7R,8aS)-5,5-dimethyloctahydroindolizin-7-yl)-5-fluoropyrimidine-2,4-diamine] gave a 50% effective concentration (EC50) (Homo sapiens, T-cell, 24 h) below 100 nM. As to `CC1(C)C[C@H](Nc2nc(Nc3ccc4c(c3)-n3nnnc3C3(CCOCC3)O4)ncc2F)C[C@@H]2CCCN21` [Compound 137, N4-((7R,8aS)-5,5-dimethyloctahydroindolizin-7-yl)-5-fluoro-N2-(2′,3′,5′,6′-tetrahydrospiro[benzo[b]tetrazolo[1,5-d][1,4]oxazine-4,4′-pyran]-8-yl)pyrimidine-2,4-diamine], the concentration for a half-maximal effect (EC50) (Homo sapiens, T-cell, 24 h) was below 100 nM. Under “Homo sapiens, T-cell, 24 h”, `CC(C)N1CCN(c2ccc(Nc3ncc(F)c(N[C@@H]4C[C@@H]5CCCN5C(C)(C)C4)n3)cc2C#N)CC1` [Compound 138, 5-(4-((7R,8aS)-octahydro-5,5-dimethylindolizin-7-ylamino)-5-fluoropyrimidin-2-ylamino)-2-(4-isopropylpiperazin-1-yl)benzonitrile] returned a concentration for a half-maximal effect (EC50) below 100 nM. As to `Cn1nnn(-c2cc(Nc3ncc(F)c(N(CC(C)(C)O)[C@@H]4C[C@@H]5CCCN5C(C)(C)C4)n3)c(F)cc2OCC(C)(C)O)c1=O` [Compound 139, 1-(5-(4-(((7R,8aS)-5,5-dimethyloctahydroindolizin-7-yl)(2-hydroxy-2-methylpropyl)amino)-5-fluoropyrimidin-2-ylamino)-4-fluoro-2-(2-hydroxy-2-methylpropoxy)phenyl)-4-methyl-1H-tetrazol-5(4H)-one], the EC50 (Homo sapiens, T-cell, 24 h) was above 10000 nM.

Take `COc1ccc(Nc2ncc(F)c(N[C@@H]3C[C@@H]4CCCN4C(C)(C)C3)n2)cc1-n1nnnc1C` [Compound 140, N4-((7R,8aS)-5,5-dimethyloctahydroindolizin-7-yl)-5-fluoro-N2-(4-methoxy-3-(5-methyl-1H-tetrazol-1-yl)phenyl)pyrimidine-2,4-diamine]: where the note is “Homo sapiens, T-cell, 24 h”, the EC50 was below 100 nM. Under “Homo sapiens, T-cell, 24 h”, `Cc1nnnn1-c1cc(Nc2ncc(F)c(N[C@@H]3C[C@@H]4CCCN4C(C)(C)C3)n2)ccc1F` [Compound 141, N4-((7R,8aS)-5,5-dimethyloctahydroindolizin-7-yl)-5-fluoro-N2-(4-fluoro-3-(5-methyl-1H-tetrazol-1-yl)phenyl)pyrimidine-2,4-diamine] showed a 50% effective concentration (EC50) below 100 nM.

Turning to `Cc1nnnn1-c1ccc(F)c(Nc2ncc(F)c(N[C@@H]3C[C@@H]4CCCN4C(C)(C)C3)n2)c1` [Compound 142, N4-((7R,8aS)-5,5-dimethyloctahydroindolizin-7-yl)-5-fluoro-N2-(2-fluoro-5-(5-methyl-1H-tetrazol-1-yl)phenyl)pyrimidine-2,4-diamine], the concentration giving a half-maximal response (EC50) (Homo sapiens, T-cell, 24 h) was below 100 nM.

`CC1(C)C[C@H](Nc2nc(Nc3ccc(F)c(-n4nnnc4C4CC4)c3)ncc2F)C[C@@H]2CCCN21` [Compound 143, N2-(3-(5-cyclopropyl-1H-tetrazol-1-yl)-4-fluorophenyl)-N4-((7R,8aS)-5,5-dimethyloctahydroindolizin-7-yl)-5-fluoropyrimidine-2,4-diamine] gave an EC50 (Homo sapiens, T-cell, 24 h) below 100 nM. In the case of `CC1(C)C[C@H](Nc2nc(Nc3cc(-n4nnnc4C4CC4)ccc3F)ncc2F)C[C@@H]2CCCN21` [Compound 144, N2-(5-(5-cyclopropyl-1H-tetrazol-1-yl)-2-fluorophenyl)-N4-((7R,8aS)-5,5-dimethyloctahydroindolizin-7-yl)-5-fluoropyrimidine-2,4-diamine], the EC50 (Homo sapiens, T-cell, 24 h) is below 100 nM. On to `CC1(C)C[C@H](Nc2nc(Nc3ccc(Cl)c(-n4nnnc4C4CC4)c3)ncc2F)C[C@@H]2CCCN21` [Compound 145, N2-(4-chloro-3-(5-cyclopropyl-1H-tetrazol-1-yl)phenyl)-N4-((7R,8aS)-5,5-dimethyloctahydroindolizin-7-yl)-5-fluoropyrimidine-2,4-diamine], for which the EC50 (Homo sapiens, T-cell, 24 h) is below 100 nM.

The EC50 is the concentration needed to bring the measured effect to its halfway point. A low value points to greater potency.
